Source: patent US9243036B2, “Anti-microbial activity of synthetic peptides” (THE UNITED STATES OF AMERICA, as represented by the …, priority 2012, dated 2016)

What was measured:
[1] = tested on: E. coli and P. aeruginosa; assay: MIC of polymyxin B (bacterium not stated; E. coli / P. aeruginosa context); type: cell-based
Protocol: In vitro anti-bacterial activity of EC5. The test microorganisms mentioned earlier in the experimental procedures were used to evaluate the bactericidal activity of EC5 peptide. The minimum inhibitory concentrations (MICs) of the peptide were determined by standard dilution assay as recommended by Clinical and Laboratory Standard Institutes (CLSI) guidelines (Azad, M. A., et al., (2011) Antimicrob. Agents Chemother. 55, 2137-2145). Bacteria were grown to mid-logarithmic phase in cation-supplemented Mueller-Hinton broth (MHB) (Becton Dickinson, Sparks, Md.) on an orbital shaker (37° C.) and diluted to a 0.5 McFarland standard to a final volume of 1 ml. Decreasing concentrations of the peptide were incubated with the microorganisms. Results were recorded by visual inspection after 24 h of incubation at 37° C. Assay was repeated three separate times to ensure reproducibility. […]
Cytoplasmic depolarization assay(Δψ) was performed using the membrane potential sensitive dye 3,3′-dipropylthiadicarbocyanine iodide (diSC3-5) (Zang, L. et al., (2001) J. Biol. Chem. 276, 35714-35722). This dye can cross the outer membrane of the bacterial cell and become concentrated in the cytoplasmic membrane and thereby it self-quenches its own fluorescence. Upon addition of a membrane-permeabilizing agent the dye is released with consequent increase in the fluorescence. […]

[2] = tested on: E. coli; assay: Membrane permeability by PI and SYTO9 uptake (LIVE/DEAD BACLIGHT); type: cell-based; details: even at the lowest concentration used
Protocol: (§1) The effects of EC5 on the membrane integrity of E. coli and P. aeruginosa cells were assessed using the LIVE/DEAD BACLIGHT™ kit (Invitrogen, Oregon) according to the manufacturer's protocol. Membrane integrity of the cells after the addition of different concentrations of peptide EC5 was measured using fluorescence micro plate reader (BioTek Instruments, Winooski, Vt.). Experiments were done in triplicates. PMB was used as a positive control.
(§2) The membrane permeabilizing activity of EC5 was also studied using the SYTO9 and PI staining method. SYTO9 stain labels both live and dead bacteria when alone, but propidium iodide stains only cells with damaged membranes, reducing the level of green fluorescent SYTO9 when both the dyes are present. […] The ratio of green versus red fluorescence can be calculated as a measure of live bacteria. […] Polymyxin B, an AMP with a net charge of +5 with membrane permeabilizing activity was used as positive control.

[3] = tested on: P. aeruginosa; assay: as above; type: cell-based; details: even at the lowest concentration used
Protocol: as §1, §2

[4] = tested on: E. coli; assay: Cytoplasmic membrane depolarization assay (diSC3-5) with parallel CFU plating; type: cell-based
Protocol: (§3) Membrane depolarization activity (Δψ) of the peptide was determined with intact E. coli and P. aeruginosa cells and the membrane potential-sensitive fluorescent dye, 3,3′-dipropylthiadicarbocyanine Iodide (diSC (3)5) (Invitrogen, Oregon), according to described methods (Sims, P. J., et al (1974) Biochemistry 13, 3315-3330). Briefly, bacterial cells of mid-logarithmic phase were harvested by centrifugation and washed twice with HEPES buffer (5 mM HEPES, 5 mM glucose, pH 7.6). The cells were suspended in the same buffer to an OD of 0.05. The cell suspension was incubated with […] diSC (3)5 until maximal uptake of the dye. 100 mM KCl was added to equilibrate the cytoplasmic and external potassium ion concentration of peptide, and fluorescence was monitored at an excitation wavelength of 622 nm and an emission wavelength of 670 nm. Polymyxin B was used as a positive control and S. aureus cells were used as negative control. Simultaneously the cells were plated on NA plates and incubated at 37° C. overnight to assess the number of CFU.
(§4) Cytoplasmic depolarization assay(Δψ) was performed using the membrane potential sensitive dye 3,3′-dipropylthiadicarbocyanine iodide (diSC3-5) (Zang, L. et al., (2001) J. Biol. Chem. 276, 35714-35722). This dye can cross the outer membrane of the bacterial cell and become concentrated in the cytoplasmic membrane and thereby it self-quenches its own fluorescence. Upon addition of a membrane-permeabilizing agent the dye is released with consequent increase in the fluorescence. EC5 at 8 μg/ml and 16 μg/ml caused rapid depolarization of the cytoplasmic membrane in both E. coli and P. aeruginosa resulting in the release of diSC3-5 within 5 min (FIG. 9C). […] However Polymyxin B even at its MIC of 0.5 μg/ml caused slow release of diSC3-5 when compared to EC5.

[5] = tested on: P. aeruginosa; assay: as above; type: cell-based
Protocol: as §3, §4

[6] = literature; cited from earlier work
[7] = polymyxin B; cited from earlier work
[8] = polymyxin B at 3.125 μg/ml, after 5 min of exposure
[9] = polymyxin B at its MIC of 0.5 μg/ml, compared to EC5

Substance: Polymyxin B
- MIC of polymyxin B [1]: 0.5 µg/mL
- permeabilization of bacterial cell membranes [2]: able to permeabilize almost all bacterial cell membranes
- permeabilization of bacterial cell membranes [3]: able to permeabilize almost all bacterial cell membranes
- time to complete inhibition of CFU ([4]; polymyxin B at 3.125 μg/ml): ≤ 5 min
- release of diSC35 from the cells [4, 8]: minimal release
- release of diSC3-5 [4, 9]: slow release
- time to complete inhibition of CFU ([5]; polymyxin B at 3.125 μg/ml): ≤ 5 min
- release of diSC35 from the cells [5, 8]: minimal release
- release of diSC3-5 [5, 9]: slow release
- toxicity [6]: high toxicity, especially nephrotoxicity
- net charge [7]: +5
